# Patent US20080241870A1, “Composition For Creating an Artificial Bone Marrow Like Environment and Use Thereof” (NATIONAL CENTRE FOR CELL SCINECES, priority 2005, published 2008)
# How the values were obtained:
# Format in all cases: cell-based, human
# αiib:β3 integrin = assay: engraftment: HCFA of CD34+ SPC attached to ABME formed via αiib:β3 integrin signaling; settings: FIG. 7
# Procedure: The mesenchyme cells (5×10^4 cells per well in a 24 well dish) were grown in IMDM plus 20% fetal bovine serum until they were nearly confluent. The medium was removed and was washed 2× with PBS. ABME was prepared by using a chemical hematomodulator [Biotin-Ser-Gly-Ser-Gly-Cys*-Asn-Pro-Arg-Gly-Asp (Tyr-OMe)Arg-Cys*Lys (cyclised between C*-C*), 10 microgram ml^−1, 18 hours] that selectively activated αiib:β3 integrin signaling in the mesenchyme cells. The ABME formed was washed 2× with PBS and was covered with 0.2 ml of a suspension of CD34^+ SPC cells (10^5 ml−1) for 1 hour, in the presence or absence of another peptide [1-Adamantaneacetyl-Cys*Gly-Arg-Gly-Asp-Ser-Pro-C(Cyclised between Cys*-Cys*)]which inhibited the interactions of αiib:β3 integrin. At the end of incubation, the cells were washed 2× with PBS and were processed for hematopoietic colony formation assays (HCFA). […] More specifically, the quantities of hematopoietic growth factors used routinely in HCFA were, 2 International Units per milliliter (2 I.U.ml^−1) of Erythropoietin (EPO), 50 nanogram per milliliter (50 ng.ml^−1) of Stem Cell Factor (SCF) and 20 nanogram per milliliter (20 ng/ml^−1) each of Granulocyte-Macrophage-Colony Stimulating Factor (GM-CSF), Granulocyte-Colony Stimulating Factor (G-CSF), Interleukin-1 beta (IL-1β), Interleukin-3 (IL-3) and Interleukin-6 (IL-6). […]
# SPC = assay: priming of SPC before contact with ABME, colony formation; settings: for colony/blood cell formation after priming SPC: SPC primed with agent
# Excerpt: Experiments were directed to determine if the ABME had properties that promoted cell survival.
# CD34+ SPC = assay: lineage commitment: HCFA with CD34+ SPC, count of mature blood cells after 14 days
# Procedure: The mesenchyme cells (5×10^4 cells per well in a 24 well dish) were grown in IMDM plus 20% fetal bovine serum until they were nearly confluent. The medium was removed and was washed 2× with PBS. Two different ABME were prepared by using two biological hematomodulators (TGFβ1 10 ngml^−1, bFGF 10 ngml^−1, 18 hours) separately. The ABME formed was washed 2× with PBS and was covered with 0.2 ml of a suspension of CD34^+ SPC cells (10^5 ml−1) for 1 hour at 37° C. All the cells of the dish were then harvested after washing and were used in a HCFA. After 14 days, the mature blood cells formed were harvested and an aliquot of the suspension was examined under the microscope to identify and count the mature lymphoid and myeloid cells.
# The mesenchyme cells (5×10^4 cells per well in a 24 well dish) were grown in IMDM plus 20% fetal bovine serum until they were nearly confluent. The medium was removed and was washed 2× with PBS. The cells in one well were treated with a DiBromo derivative of the Calcium ion chelator BAPTA (5 micromolar) for one hour whereas another well received only the medium without the BAPTA derivative. After 1 hour of incubation at 37° C., TGFβ1 was added to both the wells (10 ng ml−1) and the incubation was continued for a further period of 18 hours. The ABME formed in both wells were washed and were used for HCFA using CD34^+ SPC. After 14 days the mature blood cells were harvested and were quantitated for the cells of erythroid and myeloid lineage.
# [1] = test system: mesenchymal cells (ABME) with MNC; assay: quantitative hematopoietic colony formation assay for ABME (HCFA-ABME): MNC with hematomodulator-contacted mesenchymal cells
# Excerpt: As described above, the medium for blood cell formation employed may be IMDM with 20% serum and supplemented with interleukins such as IL-lbeta, IL-3, and IL-6, stem cell factor, lineage specific growth factors such as erythropoietin and GM-CSF, G-CSF; and methyl cellulose to the extent of 0.8%, the culture is maintained for 12-14 days under the culture conditions whereby blood cell colonies grow well or form colonies and clearly the growth is visible/distinguishable for further analysis and use. An assay designed in a similar manner to assess quantitative nature of ABME function is referred hereafter as ‘quantitative hematopoietic colony formation assay for ABME (HCFA-ABME)’.
# Several experiments were conducted to determine that mesenchymal cells exert direct influence on SPC cell-fate. In one set of experiments, mesenchymal cells were cultured separately and nearly 50,000 of them were exposed to a typical HCFA medium comprising 0.8% methyl cellulose in IMDM and 20-30% serum along with excess amounts of various purified and human specific cytokines and hematopoietic colony stimulating growth factors (from Stem cell Technologies, […], Canada). More specifically, the quantities of hematopoietic growth factors used routinely in HCFA were, 2 International Units per milliliter (2 I.U.ml^−1) of Erythropietin (EPO), 50 nanogram per milliliter (50 ng.ml^−1) of Stem Cell Factor (SCF) and 20 nanogram per milliliter (20 ng/ml^−1) each of Granulocyte-Macrophage-Colony Stimulating Factor (GM-CSF), Granulocyte-Colony Stimulating Factor (G-CSF), Interleukin-1 beta (IL-1β), Interleukin-3 (IL-3) and Interleukin-6 (IL-6) {all growth factors and cytokines are from Stem cell Technologies, Vancouver, Canada,}.
# In another set of experiments, 50,000 of the same mesenchymal cells were first mixed with nearly 100,000 MNC, held at 37° C. for at least 30 minutes and were processed for colony formation assays. In several experiments, a consistent improvement in the number and cellularity of the hematopoietic colonies was seen when both these two cell types were mixed compared to a reference where only the cells of MNC were used. The increase was ranging from 1.5 to 10-fold. Thus, the enhancement in colony formation obtained with the use of only mesenchymal cells was highly variable and unpredictable among samples. The fact that hematopoietic colonies formed in increased numbers and cellularity only when MNC and mesenchymal cells were processed together is evidence of a new environment created by the mesenchymal cells in which the SPC present in the MNC were more productive. This increase results in activation of the pre-existing but quiescent SPC, formation of new SPC due to self-renewal, and a combination of both factors.
# In order to create ABME, the mesenchymal cells were covered with the contacting medium comprising hematomodulators contained in IMDM with 20% human serum or fetal bovine serum for a desirable period (range 8-24 hours) and removed. The contacted cells were then washed 2 times using the contacting medium (IMDM +20% FCS) without hematomodulators and used as such or after harvesting the mesenchymal cells, which now represent the composition of in vitro ABME. Optionally, ABME cells can be configured on supports that will distribute them in two or more dimensions for better results. A requisite number of MNC/SPC and cells of the ABME are taken and kept together for a suitable duration (range 0.5 to 6 hours) after which they were processed for in vitro hematopoietic colony formation assays or hematopoiesis.
# Thus, the inventors undertook 4 sets of experiments: (a) wherein mononuclear cells were exposed to mesenchymal cells without any treatment; (b) wherein MNC were exposed to mesenchymal cells contacted with a biological agent [TGFβ1] […]
molecule,measurement,setting,value
"1-Adamantaneacetyl-Cys*Gly-Arg-Gly-Asp-Ser-Pro-C(Cyclised between Cys*-Cys*) (GRGDSP; N-terminal 1-adamantaneacetyl-Cys, C-terminal Cys; cyclised Cys-Cys; printed: Gly-Arg-Gly-Asp-Ser-Pro-)",hematopoietic colony numbers in presence of inhibitory peptide,αiib:β3 integrin; inhibitor present during SPC contact with ABME formed by activating peptide,colony numbers decreased in an inhibitor dose dependent manner
"NC(=O)c1cccc(N)c1 [3 Amino Benzamide, reference compound]",colony/blood cell formation after priming SPC,SPC,improved colony/blood cell formation
same,number of hematopoietic colonies formed from treated SPC,"SPC; SPC treated to inhibit Poly(ADP-ribose) Polymerase, FIG. 9",synergistically increasing the number of hematopoietic colonies formed
"O=C(O)CN(CC(=O)O)c1ccc(Br)cc1OCCOc1cc(Br)ccc1N(CC(=O)O)CC(=O)O [DiBromo BAPTA, DiBromo derivative of Ca^++ chelator BAPTA, reference compound]",proportion of myeloid and erythroid cells,"CD34+ SPC; 5 micromolar for one hour, then TGFβ1 10 ng ml-1 18 hours, vs TGFβ1 alone, FIG. 8b",significant difference in the proportion of myeloid and erythroid cell population
"CC(C)[C@H]1C(=O)N[C@H](CO)Cc2c[nH]c3cccc(c23)N1C [chemical agent 1, (—) Indolactam V, reference compound]",colonies of cells relative to (A),"[1]; MNC exposed to mesenchymal cells contacted with chemical agent, (A) = untreated mesenchymal cells",at least 4 times
Biotin-Ser-Gly-Ser-Gly-Cys*-Asn-Pro-Arg-Gly-Asp (Tyr-OMe)Arg-Cys*Lys (cyclised between C*-C*),hematopoietic colonies formed by ABME (activating peptide),"αiib:β3 integrin; 10 microgram ml^-1, 18 hours, CD34+ SPC 1 hour, HCFA 12-14 days",significantly more number of hematopoietic colonies
HuFGF-2,mature lymphoid and myeloid cells formed,"CD34+ SPC; 10 ngml^-1, 18 hours, HCFA 14 days, FIG. 8a",more of lymphoid cells were produced
same,efficiency of ABME created,"[1]; 1-25 nano gram.ml^-1, mesenchymal cells contacted 8-24 hours",equally efficient ABME
same,"colony formation along lineages GEMM, BFU-E and GM","[1]; lineage specific colony formation assay, FIG. 3A, vs control without biological agent",uniformly stimulated
same,potency in creating ABME from mesenchymal cells,[1]; used separately,nearly equipotent
IGF-1: priming agent activating IGF-I receptor signals,colony/blood cell formation after priming SPC,SPC,improved colony/blood cell formation
"IGF-II: priming agent, Mannose6-phosphate/IGF-II receptor",colony/blood cell formation after priming SPC,SPC,improved colony/blood cell formation
Latency Associated peptide of human TGF beta1.,colony/blood cell formation after priming SPC,SPC,improved colony/blood cell formation
